In US6489490B1, “2-(2-chlorophenyl)-3,4-dihydro-2h-pyrrol derivatives” (Bayer Aktiengesellschaft, priority 1998, dated 2002):
Read-outs that look alike come from different tables or passages of the source.

Columns and labels:
[1] = log P determined by HPLC analysis; format: physicochemical
Method: log P*=[…] logarithm to base 10 of the […] partition coefficient, determined by HPLC analysis on 125×4.0 mm Kromasil 120 C 18 (5 μm), using water/acetonitrile as mobile phase; flow rate: 1.5 ml/min.

[2] = system: all stages of the greenhouse red spider mite (Tetranychus urticae); experiment: Tetranychus test (OP-resistant/dip treatment); format: in vivo; conditions: concentration of active compound at most 0.1%, after 6 days, dipped bean plants
Method: Tetranychus Test (OP-resistant/dip Treatment)
(§1) Solvent: 7 parts by weight of dimethylformamide
(§2) Emulsifier: 1 part by weight of alkylaryl polyglycol ether
To produce a suitable preparation of active compound, 1 part by weight of active compound is mixed with the stated amounts of solvent and emulsifier, and the concentrate is diluted with emulsifier-containing water to the desired concentration.
Bean plants (Phaseolus vulgaris) which are heavily infested by all stages of the greenhouse red spider mite (Tetranychus urticae) are dipped into a preparation of the active compound of the desired concentration.
After the desired period of time, the kill in % is determined. 100% means that all spider mites have been killed; 0% means that none of the spider mites have been killed.

[3] = system: caterpillars of the cotton bollworm (Heliothis armigera); experiment: Heliothis armigera test; format: in vivo; conditions: concentration of active compound 0.004%, after 6 days, dipped soybean shoots
Method: as §1, §2
(§3) To produce a suitable preparation of active compound, 1 part by weight of active compound is mixed with the stated amounts of solvent and emulsifier, and the concentrate is diluted with emusifier-containing water to the desired concentration.
Soybean shoots (Glycine max) are treated by being dipped into the preparation of active compound of the desired concentration and are populated with caterpillars of the cotton bollworm (Heliothis armigera) while the leaves are still moist.
(§4) After the desired period of time, the kill in % is determined. 100% means that all caterpillars have been killed; 0% means that none of the caterpillars have been killed.

[4] = system: larvae of the mustard beetle (Phaedon cochleariae); experiment: Phaedon larvae test; format: in vivo; conditions: concentration of active compound 0.004%, after 6 days, dipped cabbage leaves
Method: Phaedon Larvae Test Solvent: 7 parts by weight of dimethylformamide Emulsifier: 1 part by weight of alkylaryl polyglycol ether To produce a suitable preparation of active compound, 1 part by weight of active compound is mixed with the stated amounts of solvent and emulsifier, and the concentrate is diluted with emusifier-containing water to the desired concentration. Cabbage leaves (Brassica oleracea) are treated by being dipped into the preparation of active compound of the desired concentration and are populated with larvae of the mustard beetle (Phaedon cochleariae) while the leaves are still moist.

[5] = system: caterpillars of the diamond-back moth (Plutella xylostella); experiment: Plutella test; format: in vivo; conditions: concentration of active compound 0.004%, after 6 days, dipped cabbage leaves
Method: as §1, §2, §3
Cabbage leaves (Brassica oleracea) are treated by being dipped into the preparation of active compound of the desired concentration and are populated with caterpillars of the diamond-back moth (Plutella xylostella) while the leaves are still moist.
as §4

[6] = system: caterpillars of the army-worm (Spodoptera frugiperda); experiment: Spodoptera frugiperda test; format: in vivo; conditions: concentration of active compound at most 0.1%, after 6 days, dipped cabbage leaves
Method: Spodoptera frugiperda Test
as §1, §2, §3
Cabbage leaves (Brassica oleracea) are treated by being dipped into the preparation of active compound of the desired concentration and are populated with caterpillars of the army-worm (Spodoptera frugiperda) while the leaves are still moist.
as §4

[7] = pH 2.3, HPLC, read-out: log P (pH 2.3)

O=C1CCC(c2ccc(-c3ccc(OC(F)(F)C(F)F)cc3)cc2)N1 (stereo not drawn) [Example XI-43]
chromatographic logP [1, 7]: 2.79

FC(F)C(F)(F)Oc1ccc(-c2ccc(C3CCC(c4ccccc4Cl)=N3)cc2)cc1 (stereo not drawn) [Example I-43]
chromatographic logP [1, 7]: 4.01

Clc1ccccc1C1=NC(c2ccccc2)CC1 (stereo not drawn) [Example I-20]
kill in % [2]: 100%
log P* (pH 7.5) ([1]; pH 7.5, HPLC, Kromasil 120 C 18, water/acetonitrile): 3.6 l

FC(F)(F)Oc1ccc(-c2ccc(C3CCC(c4ccccc4Cl)=N3)cc2)cc1 (stereo not drawn) [Example I-7]
kill in % [3]: 100%
kill in % [4]: 100%
kill in % [5]: 100%
kill in % [6]: 100%
kill in % [2]: 100%

CC(C)(C)OC(=O)N1C(=O)CCC1c1ccc(-c2ccc(OC(F)(F)C(F)F)cc2)cc1 (stereo not drawn) [Example IX-43]
chromatographic logP [1, 7]: 3.96

CC(C)(C)OC(=O)NC(CCC(=O)c1ccccc1Cl)c1ccc(-c2ccc(OC(F)(F)C(F)F)cc2)cc1 (stereo not drawn) [Example VIII-43]
chromatographic logP [1, 7]: 4.94

O=C(c1ccccc1Cl)C1CC(c2ccccc2)N(C(=O)c2ccccc2Cl)C1=O (stereo not drawn) [Example G(II)-20, 1,3-(2-chlorobenzoyl)-5-phenyl-pyrrolidin-2-one]
chromatographic logP ([1]; pH 2.5, read-out: log P (pH 2.5)): 3.91
